Data on 18 molecules can be found in patent US12319672B2, “Alpha-D-galactopyranoside derivatives” (Idorsia Pharmaceuticals Ltd, priority 2019, dated 2025).

The target of one assay is human Gal-1 (hGal-1). Briefly: Competitive binding assay: binding of biotinylated hGal-1 to microplate-adsorbed asialofetuin (ASF). The conditions noted are these: Activities on hGal-1; mean values of several measurements. An outline of the steps: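 For hGal-1, a variant with all six cysteines replaced by serines is preferred. Either galectin, biotinylated at 300-1000 ng/mL, competes with compound for microplate-bound ASF over 3 h at 4° C; peroxidase/ABTS detection gives IC50, averaged.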
Chain of human Gal-1 (hGal-1) (P09382 2-135 limits assumed): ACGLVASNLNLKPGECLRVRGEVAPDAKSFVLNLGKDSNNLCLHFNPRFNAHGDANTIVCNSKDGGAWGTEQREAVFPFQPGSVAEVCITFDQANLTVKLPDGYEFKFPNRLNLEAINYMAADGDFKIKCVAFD

For another assay, the target named is human Gal-3 (hGal-3) (Homo sapiens (Human), UniProt P17931). Briefly: Competitive binding assay: binding of biotinylated hGal-3 to microplate-adsorbed asialofetuin (ASF). The conditions noted are these: Activity on hGal-3; mean values of several measurements. In short, it runs like this: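 Compounds in DMSO dilution series competed with 300-1000 ng/mL biotinylated hGal-3 for asialofetuin adsorbed on the plate (3 h, 4° C). Streptavidin-peroxidase at 80 ng/mL (1 h, 4° C) with ABTS gave a spectrophotometric read-out, and IC50 was reported as the mean of repeat runs.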
Chain of human Gal-3 (hGal-3) (P17931 whole entry): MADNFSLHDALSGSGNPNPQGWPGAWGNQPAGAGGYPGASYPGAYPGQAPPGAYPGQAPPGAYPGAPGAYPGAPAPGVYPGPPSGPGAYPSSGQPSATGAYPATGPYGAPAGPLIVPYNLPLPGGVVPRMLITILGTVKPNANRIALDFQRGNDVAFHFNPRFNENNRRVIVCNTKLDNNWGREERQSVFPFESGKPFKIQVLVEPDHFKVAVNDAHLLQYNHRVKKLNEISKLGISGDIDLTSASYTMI

One may read the IC50 as the point on the concentration scale where inhibition reaches its midpoint. On to `CC(C)O[C@@H]1[C@@H](n2cc(-c3cc(F)c(F)c(F)c3)nn2)[C@@H](O)[C@@H](CO)O[C@@H]1Cc1cc(C2CCNCC2)on1` [Example 2.24, (2R,3R,4S,5R,6R)-2-(hydroxymethyl)-5-isopropoxy-6-((5-(piperidin-4-yl)isoxazol-3-yl)methyl)-4-(4-(3,4,5-trifluorophenyl)-1H-1,2,3-triazol-1-yl)tetrahydro-2H-pyran-3-ol], for which the IC50 was 9610 nM on human Gal-1 (hGal-1) and 990 nM on human Gal-3 (hGal-3).
With `OC[C@H]1O[C@H](Cc2cc(C3CCNCC3)on2)[C@H](OCC(F)F)[C@@H](n2cc(-c3cc(F)c(F)c(F)c3)nn2)[C@H]1O` [Example 2.26, (2R,3R,4S,5R,6R)-5-(2,2-difluoroethoxy)-2-(hydroxymethyl)-6-((5-(piperidin-4-yl)isoxazol-3-yl)methyl)-4-(4-(3,4,5-trifluorophenyl)-1H-1,2,3-triazol-1-yl)tetrahydro-2H-pyran-3-ol], the IC50 was determined as 4490 nM at human Gal-1 (hGal-1) and 200 nM at human Gal-3 (hGal-3).
Taken in the same sequence, the figures for `Cc1ccc(-c2cn([C@H]3[C@@H](O)[C@@H](CO)O[C@H](Cc4cc(C(C)(C)C)on4)[C@@H]3OCC(=O)O)nn2)c(F)c1F` [Example 2.27, 2-(((2R,3R,4S,5R,6R)-2-((5-(tert-butyl)isoxazol-3-yl)methyl)-4-(4-(2,3-difluoro-4-methylphenyl)-1H-1,2,3-triazol-1-yl)-5-hydroxy-6-(hydroxymethyl)tetrahydro-2H-pyran-3-yl)oxy)acetic acid] were 5280 nM and 24 nM.
As for `CC(C)(C)c1cc(C[C@H]2O[C@H](CO)[C@H](O)[C@H](n3cc(-c4cc(F)c(F)c(F)c4)nn3)[C@H]2OCC(=O)N2CCOCC2)no1` [Example 2.28, 2-(((2R,3R,4S,5R,6R)-2-((5-(tert-butyl)isoxazol-3-yl)methyl)-5-hydroxy-6-(hydroxymethyl)-4-(4-(3,4,5-trifluorophenyl)-1H-1,2,3-triazol-1-yl)tetrahydro-2H-pyran-3-yl)oxy)-1-morpholinoethan-1-one], the IC50 stood at 2180 nM on human Gal-1 (hGal-1) and 110 nM on human Gal-3 (hGal-3).
Consider `CO[C@@H]1[C@@H](n2cc(-c3cc(F)c(F)c(F)c3)nn2)[C@@H](O)[C@@H](CO)O[C@@H]1Cc1cc(C2CCC(NC(=O)[C@@H](NC(=O)OC(C)(C)C)C(C)C)CC2)no1` (stereo partly drawn) [Example 2.29, tert-butyl ((S)-1-(((1R,4S)-4-(5-(((2R,3R,4S,5R,6R)-5-hydroxy-6-(hydroxymethyl)-3-methoxy-4-(4-(3,4,5-trifluorophenyl)-1H-1,2,3-triazol-1-yl)tetrahydro-2H-pyran-2-yl)methyl)isoxazol-3-yl)cyclohexyl)amino)-3-methyl-1-oxobutan-2-yl)carbamate], for which the IC50 at human Gal-1 (hGal-1) stood at 2330 nM; on human Gal-3 (hGal-3), 17 nM.
Taken in the same sequence, the figures for `CO[C@@H]1[C@@H](n2cc(-c3cc(F)c(F)c(F)c3)nn2)[C@@H](O)[C@@H](CO)O[C@@H]1Cc1cc(C2CCC(NC(=O)[C@@H](N)C(C)C)CC2)no1` (stereo partly drawn) [Example 2.30, (S)-2-amino-N-((1R,4S)-4-(5-(((2R,3R,4S,5R,6R)-5-hydroxy-6-(hydroxymethyl)-3-methoxy-4-(4-(3,4,5-trifluorophenyl)-1H-1,2,3-triazol-1-yl)tetrahydro-2H-pyran-2-yl)methyl)isoxazol-3-yl)cyclohexyl)-3-methylbutanamide] were 1980 nM and 72 nM.
For `CC(C)(C)c1cc(C[C@H]2O[C@H](CO)[C@H](O)[C@H](n3cc(-c4cc(F)c(F)c(F)c4)nn3)[C@H]2OCC(=O)O)on1` [Example 2.37, 2-(((2R,3R,4S,5R,6R)-2-((3-(tert-butyl)isoxazol-5-yl)methyl)-5-hydroxy-6-(hydroxymethyl)-4-(4-(3,4,5-trifluorophenyl)-1H-1,2,3-triazol-1-yl)tetrahydro-2H-pyran-3-yl)oxy)acetic acid], the IC50 on human Gal-1 (hGal-1) stood at 1740 nM; at human Gal-3 (hGal-3) it was 71 nM.
For the molecule `CNC(=O)CO[C@@H]1[C@@H](n2cc(-c3cc(F)c(F)c(F)c3)nn2)[C@@H](O)[C@@H](CO)O[C@@H]1Cc1cc(C(C)(C)C)on1` [Example 2.38, 2-(((2R,3R,4S,5R,6R)-2-((5-(tert-butyl)isoxazol-3-yl)methyl)-5-hydroxy-6-(hydroxymethyl)-4-(4-(3,4,5-trifluorophenyl)-1H-1,2,3-triazol-1-yl)tetrahydro-2H-pyran-3-yl)oxy)-N-methylacetamide], the IC50 on human Gal-1 (hGal-1) is 1990 nM; on human Gal-3 (hGal-3), 190 nM.
As to `CC(C)(C)c1cc(C[C@H]2O[C@H](CO)[C@H](O)[C@H](n3cc(-c4cc(F)c(F)c(F)c4)nn3)[C@H]2OCC(=O)N2CC[C@@H](O)C2)no1` [Example 2.39, 2-(((2R,3R,4S,5R,6R)-2-((5-(tert-butyl)isoxazol-3-yl)methyl)-5-hydroxy-6-(hydroxymethyl)-4-(4-(3,4,5-trifluorophenyl)-1H-1,2,3-triazol-1-yl)tetrahydro-2H-pyran-3-yl)oxy)-1-((R)-3-hydroxypyrrolidin-1-yl)ethan-1-one], the half-maximal inhibitory concentration (IC50) on human Gal-1 (hGal-1) was 6680 nM; at human Gal-3 (hGal-3), 110 nM.
With `CC(C)(C)c1cc(C[C@H]2O[C@H](CO)[C@H](O)[C@H](n3cc(-c4cc(F)c(F)c(F)c4)nn3)[C@H]2OCC(=O)N2CC(O)C2)no1` [Example 2.40, 2-(((2R,3R,4S,5R,6R)-2-((5-(tert-butyl)isoxazol-3-yl)methyl)-5-hydroxy-6-(hydroxymethyl)-4-(4-(3,4,5-trifluorophenyl)-1H-1,2,3-triazol-1-yl)tetrahydro-2H-pyran-3-yl)oxy)-1-(3-hydroxyazetidin-1-yl)ethan-1-one], the IC50 on human Gal-1 (hGal-1) was 4580 nM; at human Gal-3 (hGal-3), 130 nM.
Turning to `CC(C)(C)c1cc(C[C@H]2O[C@H](CO)[C@H](O)[C@H](n3cc(-c4cc(F)c(F)c(F)c4)nn3)[C@H]2OCC(=O)N2CCC(O)CC2)no1` [Example 2.41, 2-(((2R,3R,4S,5R,6R)-2-((5-(tert-butyl)isoxazol-3-yl)methyl)-5-hydroxy-6-(hydroxymethyl)-4-(4-(3,4,5-trifluorophenyl)-1H-1,2,3-triazol-1-yl)tetrahydro-2H-pyran-3-yl)oxy)-1-(4-hydroxypiperidin-1-yl)ethan-1-one], the results for the IC50 at human Gal-1 (hGal-1) and at human Gal-3 (hGal-3) were 5840 nM and 100 nM, respectively.
As to `CC(C)(C)c1cc(C[C@H]2O[C@H](CO)[C@H](O)[C@H](n3cc(-c4cc(F)c(F)c(F)c4)nn3)[C@H]2OCC(=O)N2CC[C@H](O)C2)no1` [Example 2.42, 2-(((2R,3R,4S,5R,6R)-2-((5-(tert-butyl)isoxazol-3-yl)methyl)-5-hydroxy-6-(hydroxymethyl)-4-(4-(3,4,5-trifluorophenyl)-1H-1,2,3-triazol-1-yl)tetrahydro-2H-pyran-3-yl)oxy)-1-((S)-3-hydroxypyrrolidin-1-yl)ethan-1-one], the IC50 on human Gal-1 (hGal-1) came out at 3270 nM; at human Gal-3 (hGal-3), 180 nM.
Take `CC(C)(C)c1cc(C[C@H]2O[C@H](CO)[C@H](O)[C@H](n3cc(-c4ccc(F)c(F)c4F)nn3)[C@H]2OCC(=O)O)on1` [Example 2.43, 2-(((2R,3R,4S,5R,6R)-2-((3-(tert-butyl)isoxazol-5-yl)methyl)-5-hydroxy-6-(hydroxymethyl)-4-(4-(2,3,4-trifluorophenyl)-1H-1,2,3-triazol-1-yl)tetrahydro-2H-pyran-3-yl)oxy)acetic acid]: the IC50 at human Gal-1 (hGal-1) turned out to be 550 nM; on human Gal-3 (hGal-3), 47 nM.
As to `CC1(c2cc(C[C@H]3O[C@H](CO)[C@H](O)[C@H](n4cc(-c5ccc(F)c(F)c5F)nn4)[C@H]3OCC(=O)O)on2)CC1` [Example 2.44, 2-(((2R,3R,4S,5R,6R)-5-hydroxy-6-(hydroxymethyl)-2-((3-(1-methylcyclopropyl)isoxazol-5-yl)methyl)-4-(4-(2,3,4-trifluorophenyl)-1H-1,2,3-triazol-1-yl)tetrahydro-2H-pyran-3-yl)oxy)acetic acid], the IC50 on human Gal-1 (hGal-1) is 510 nM; on human Gal-3 (hGal-3), 40 nM.
For `Cc1ccc(-c2cn([C@H]3[C@@H](O)[C@@H](CO)O[C@H](Cc4cc(C(C)(C)C)no4)[C@@H]3OC(N)=O)nn2)c(F)c1F` [Example 2.45, (2R,3R,4S,5R,6R)-2-((3-(tert-butyl)isoxazol-5-yl)methyl)-4-(4-(2,3-difluoro-4-methylphenyl)-1H-1,2,3-triazol-1-yl)-5-hydroxy-6-(hydroxymethyl)tetrahydro-2H-pyran-3-yl carbamate], the results for the IC50 at human Gal-1 (hGal-1) and on human Gal-3 (hGal-3) were 2420 nM and 22 nM, respectively.
As for `CC(C)(CO)c1cc(C[C@H]2O[C@H](CO)[C@H](O)[C@H](n3cc(-c4ccc(F)c(F)c4F)nn3)[C@H]2OCC(=O)O)on1` [Example 2.46, 2-(((2R,3R,4S,5R,6R)-5-hydroxy-2-((3-(1-hydroxy-2-methylpropan-2-yl)isoxazol-5-yl)methyl)-6-(hydroxymethyl)-4-(4-(2,3,4-trifluorophenyl)-1H-1,2,3-triazol-1-yl)tetrahydro-2H-pyran-3-yl)oxy)acetic acid], the IC50 on human Gal-1 (hGal-1) is 890 nM; on human Gal-3 (hGal-3) it was 29 nM.
As to `C#Cc1ccc(-c2cn([C@H]3[C@@H](O)[C@@H](CO)O[C@H](Cc4cc(C(C)(C)C)on4)[C@@H]3OC)nn2)c(F)c1F` [Example 2.47, (2R,3R,4S,5R,6R)-6-((5-(tert-butyl)isoxazol-3-yl)methyl)-4-(4-(4-ethynyl-2,3-difluorophenyl)-1H-1,2,3-triazol-1-yl)-2-(hydroxymethyl)-5-methoxytetrahydro-2H-pyran-3-ol], the IC50 at human Gal-1 (hGal-1) is 4400 nM; at human Gal-3 (hGal-3), 230 nM.
In the case of `CC(C)(C)c1cc(C[C@H]2O[C@H](CO)[C@H](O)[C@H](n3cc(-c4cc(F)c(F)c(F)c4)nn3)[C@H]2O)on1` [Example 2.48, (2R,3R,4R,5R,6R)-2-((3-(tert-butyl)isoxazol-5-yl)methyl)-6-(hydroxymethyl)-4-(4-(3,4,5-trifluorophenyl)-1H-1,2,3-triazol-1-yl)tetrahydro-2H-pyran-3,5-diol], the results for the IC50 on human Gal-1 (hGal-1) and on human Gal-3 (hGal-3) were 1040 nM and 98 nM, respectively.
